The text below walks through data of paper PMC12651750 (Cells, 2025).

Molecules are shown by their SMILES. Like-named read-outs stand apart in the source and are kept apart here.

The target of one experiment is HDAC1 (Homo sapiens, UniProt Q13547). The experiment in a line: In vitro HDAC enzymatic inhibition assay (HDAC kit, fluorescence).
Experiment [1] deals with HL-60, human leukemic cell line. The experiment can be described thus: Anti-proliferation MTT / CCK-8 assay. In kind it is cell-based. An excerpt:
(§1) K562, human erythroleukemia line; HL-60, human leukemic cell line; Jurkat, human leukemic T cell line; CCRF-CEM, human leukemic lymphoblasts; U937, human histiocytic lymphoma; HCT-116, human colorectal cancer cell line; A549, human lung cancer cell line; Hep G2, human hepatoma cell lines; MDA-MB-231, MCF-7, human breast cancer cell line; 4T1, mouse breast cancer cell line; PC12, pheochromocytoma of the rat adrenal medulla; HUVEC, human umbilical vein endothelial cells. These cells were purchased from the National Collection of Authenticated Cell Cultures (Shanghai, China).
(§2) The concentration of the cell suspension was adjusted to the appropriate concentration with fresh medium (the number of cells was about 30–40% of the bottom area of the well plate). 150 μL (about 1 × 10^4 cells) of prepared cell suspension containing different concentrations of NBU-2 were added to a 96-microtiter plate, and 3 replicate wells were set up for each concentration. If the cells were adherent, the cells were first allowed to grow overnight in 96 microtiter plates until the cells were adherent, and then the old medium was replaced with the drug-containing medium. The plates were incubated in a 5% CO2 cell incubator at 37 °C for 72 h. Then, 15 μL of MTT solution was added to each well, 100 μL of 10% SDS solution (pH = 2) was added after 4 h, and the plate was incubated at 37 °C with 5% CO2 overnight to fully dissolve the crystals. Finally, the absorbance value of each well was measured at 570 and 655 nm.
(§3) The cells (about 1 × 10^4 cells) were treated with different concentrations of NBU-2 and DMSO control for different times (24 h, 48 h, 72 h), with 3 replicate wells for each concentration. Incubate at 37 °C in a 5% CO2 cell culture incubator. After a predetermined time, 10 μL of CCK-8 was added to each well and incubated for 2 h. The absorbance was measured at the excitation wavelength of 450 nm.
Background: Tetrazolium assays rely on reduction of a dye to a coloured formazan, in cell work by metabolically active cells.

For experiment [2], the system named is U937, human histiocytic lymphoma. The experiment can be described thus: Anti-proliferation MTT / CCK-8 assay. In kind it is cell-based.
Excerpt: as §1, §2, §3

For experiment [3], the system named is PC12, pheochromocytoma of the rat adrenal medulla. The experiment can be described thus: Anti-proliferation MTT / CCK-8 assay. In kind it is cell-based. To be noted: PC-12, 72 h.
Excerpt: as §1, §2, §3

For the next experiment, the system named is Jurkat cells. The experiment can be described thus: Whole proteomic analysis (mass spectrometry). In kind it is cell-based, human. Here is the method: The cell cultivation was completed in a 60 mm plate; the number of cells accounted for roughly 30–40% of the orifice. We stimulated cells with 1 μM and 5 μM of NBU-2 and 0.1% DMSO. […] After 48 h, the cells were collected, about 200 μL of NP-40 Lysis Buffer containing phosphatase inhibitor and protease inhibitor was added, and the cells were lysed to release the proteins. Measure the protein concentration of each group of samples using the BCA protein quantification method. The disulfide bonds in the protein structure were reduced using TCEP and then alkylated with IAA. Samples were added to a centrifugal filtration unit with an ultrafiltration membrane, and proteins were digested using trypsin 2 times, the first time for 4 h and the second time overnight with the addition of an appropriate amount of trypsin. […] Samples were reconstituted using 0.1% formic acid, and approximately 1 μg of protein was taken for detection using mass spectrometry.
Mass spectrometry analysis was performed using an Orbitrap Fusion Lumos mass spectrometer (Thermo Fisher Scientific, Shanghai, China). Chromatographic separations were performed on an Acclaim PepMap C18 column using a 60 min linear gradient elution program: the proportion of mobile phase B (acetonitrile containing 0.1% formic acid) was increased from 2% to 35%, and the flow rate was maintained at 250 nL/min. […]

The next experiment has as its target T1, HDAC6 (Homo sapiens, UniProt Q9UBN7).
T1 sequence (Q9UBN7 1-1215): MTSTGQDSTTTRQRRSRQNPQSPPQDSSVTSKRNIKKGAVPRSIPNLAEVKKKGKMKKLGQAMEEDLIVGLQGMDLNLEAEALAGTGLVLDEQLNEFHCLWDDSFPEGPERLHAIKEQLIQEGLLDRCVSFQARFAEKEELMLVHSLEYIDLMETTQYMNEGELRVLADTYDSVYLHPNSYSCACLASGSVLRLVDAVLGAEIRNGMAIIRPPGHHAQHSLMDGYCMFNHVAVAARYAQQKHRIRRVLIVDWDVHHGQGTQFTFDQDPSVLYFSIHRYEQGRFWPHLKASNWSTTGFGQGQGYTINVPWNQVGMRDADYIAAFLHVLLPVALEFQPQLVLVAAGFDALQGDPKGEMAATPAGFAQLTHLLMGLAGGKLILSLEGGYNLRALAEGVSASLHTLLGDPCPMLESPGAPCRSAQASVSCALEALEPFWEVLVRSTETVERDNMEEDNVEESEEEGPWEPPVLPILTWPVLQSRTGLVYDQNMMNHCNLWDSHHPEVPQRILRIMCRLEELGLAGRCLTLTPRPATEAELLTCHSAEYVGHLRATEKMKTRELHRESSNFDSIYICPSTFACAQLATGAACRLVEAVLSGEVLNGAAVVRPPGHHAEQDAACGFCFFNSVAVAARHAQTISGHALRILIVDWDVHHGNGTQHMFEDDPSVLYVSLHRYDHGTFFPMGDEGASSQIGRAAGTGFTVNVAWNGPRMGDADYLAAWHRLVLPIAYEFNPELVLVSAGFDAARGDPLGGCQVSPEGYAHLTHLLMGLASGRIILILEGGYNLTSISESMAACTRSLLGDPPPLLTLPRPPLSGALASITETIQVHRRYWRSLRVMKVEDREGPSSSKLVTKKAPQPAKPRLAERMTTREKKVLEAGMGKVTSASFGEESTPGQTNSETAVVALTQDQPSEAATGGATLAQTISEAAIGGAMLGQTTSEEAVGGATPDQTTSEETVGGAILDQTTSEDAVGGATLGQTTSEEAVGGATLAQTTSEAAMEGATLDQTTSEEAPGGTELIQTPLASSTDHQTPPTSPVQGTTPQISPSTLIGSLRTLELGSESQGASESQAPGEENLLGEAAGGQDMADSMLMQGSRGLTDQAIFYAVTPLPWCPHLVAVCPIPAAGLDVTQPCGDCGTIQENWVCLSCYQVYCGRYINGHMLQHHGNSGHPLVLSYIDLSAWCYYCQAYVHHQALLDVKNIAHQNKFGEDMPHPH
The experiment in a line: In vitro HDAC enzymatic inhibition assay (HDAC kit, fluorescence).

Chain of HDAC1 (Q13547 whole entry): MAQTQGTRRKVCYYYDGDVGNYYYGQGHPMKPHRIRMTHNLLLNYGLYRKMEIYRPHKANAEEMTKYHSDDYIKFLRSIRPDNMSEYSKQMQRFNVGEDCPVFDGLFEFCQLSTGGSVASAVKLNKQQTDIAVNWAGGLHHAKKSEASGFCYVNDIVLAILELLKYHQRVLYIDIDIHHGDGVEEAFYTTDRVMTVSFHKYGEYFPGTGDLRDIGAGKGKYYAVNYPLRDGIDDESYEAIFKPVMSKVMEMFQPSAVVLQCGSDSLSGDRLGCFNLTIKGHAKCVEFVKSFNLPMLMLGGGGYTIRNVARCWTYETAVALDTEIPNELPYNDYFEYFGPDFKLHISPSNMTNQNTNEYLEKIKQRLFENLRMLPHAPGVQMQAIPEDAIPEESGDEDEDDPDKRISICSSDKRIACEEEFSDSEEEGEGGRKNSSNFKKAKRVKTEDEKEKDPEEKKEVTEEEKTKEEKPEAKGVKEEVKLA
Method for HDAC1: (§4) Enzymatic assays were performed by Shanghai ChemPartner according to the HDAC kit protocol. […] Fluorescence was recorded at 355 nm excitation and 460 nm emission on a Synergy MX reader (PerkinElmer Life Sciences, Boston, MA, USA). IC50 values were derived from dose–response curves.
Method for HDAC6: as §4

Regarding `Cc1cccc2c(=O)c3c(NCCCCCC(=O)NO)ccc([N+](=O)[O-])c3[nH]c12` [NBU-2, N-hydroxy-6-((5-methyl-4-nitro-9-oxo-9,10-dihydroacridin-1-yl)amino)hexanamide], the IC50 was 7.75 ± 0.57 nM against HDAC1; below 5000 nM in experiment [1] (HL-60, 72 h, read-out: IC50 against HL-60); 1920 ± 80 nM in experiment [1] (HL-60, read-out: IC50 proliferation HL-60, heading: IC50 proliferation HL-60, 72 h, mean ± SEM of three independent assays); below 5000 nM in experiment [2] (U-937, 72 h, read-out: IC50 against U937); 2340 ± 1080 nM in experiment [2] (U-937, read-out: IC50 proliferation U937, heading: IC50 proliferation U937, 72 h, mean ± SEM of three independent assays); above 50 nM in experiment [3]. For the same molecule, the IC50 against HDAC6 was determined as 7.34 ± 0.6 nM. In addition, in the experiment on Jurkat cells (1 µM and 5 µM vs DMSO, p > 0.05), the “Total Akt protein (proteomics)” value is reported as “did not show any significant change”. In addition, the “Expression of Rb (proteomics)” value with Jurkat cells (48 h) was “not affected”.
